Experimental findings from patent US11572398B2, “GLP-1 derivatives and uses thereof” (Novo Nordisk A/S, priority 2014, dated 2023) are described below.

Assay [1] concerns the target T1, human GLP-1 receptor (Homo sapiens, UniProt P43220).
T1 construct: expressed in transfected cells; host or cells: BHK cells (parent line BHKTS13), clone FCW467-12A; membrane preparation
Description: GLP-1 receptor binding: competitive binding assay (125I-GLP-1, SPA) on isolated membranes at low and high HSA. As to the method:
The purpose of this example is to test the receptor binding of the GLP-1 derivatives in vitro. The receptor binding is a measure of affinity of a derivative for the human GLP-1 receptor.
Each derivative is added in a series of concentrations to isolated membranes containing the human GLP-1 receptor and displacement of the labelled ligand is monitored. The receptor binding is reported as the concentration at which half of the labelled ligand is displaced from the receptor, the IC50 value.
Buffer 1 consisted of 20 mM Na-HEPES plus 10 mM EDTA and pH was adjusted to 7.4. Buffer 2 consisted of 20 mM Na-HEPES plus 0.1 mM EDTA and pH was adjusted to 7.4. Assay buffer consisted of 50 mM HEPES supplemented with 5 mM EGTA, 5 mM MgCl2, 0.005% Tween 20 and pH was adjusted to 7.4. An 8% albumin stock consisted of HSA dissolved at 8% (w/v) in assay buffer. An 0.02% albumin stock consisted of HSA dissolved at 0.02% (w/v) in assay buffer.
The cells express the human GLP-1 receptor.
The cells were grown at 5% CO2 in DMEM, 10% fetal calf serum, 1% Pen/Strep (Penicillin/Streptomycin) and 1.0 mg/ml of the selection marker G418. To make a membrane preparation the cells were grown to approximately 80% confluence. The cells were washed twice in phosphate-buffered saline and harvested. The cells were pelleted using a brief centrifugation and the cell pellet was kept on ice. […] The homogenate was centrifuged for 15 minutes. The pellet was re-suspended (homogenised) in 10 ml buffer 2 and centrifuged. This step was repeated once more. The resulting pellet was re-suspended in buffer 2 and the protein concentration was determined. The membranes were aliquoted and stored at minus 80° C.
1. […] Assay continued with step 3.
2. For the receptor binding assay in the presence of high HSA (2%) 50 μl of the 8% albumin stock was added to each well of an assay plate. Assay continued with step 3.
4. Cell membrane aliquots were thawed and diluted to their working concentration. Fifty μl were added to each well in the assay plate.
5. WGA SPA beads were suspended in assay buffer at 20 mg/ml. The suspension was diluted to 10 mg/ml in assay buffer just prior to addition to the assay plate. Fifty μl were added to each well in the assay plate.
6. […] A 25 μl aliquot was reserved for measuring total counts/well.
7. The assay plate was incubated for 2 h at 30° C.
8. The assay plate was centrifuged for 10 min.
9. The assay plate was read in a Packard TopCount NXT instrument.
The data from the TopCount instrument were transferred to GraphPad Prism software. Individual replicates were analysed using non-linear regression. IC50 values were calculated by the software and reported in nM. The reported values are averages of all of the measured values for each compound.

In assay [2] the target is T1, human GLP-1 receptor. Description: In vitro potency: CRE luciferase reporter gene assay in BHK cells expressing the human GLP-1 receptor. It counts as cell-based. As to conditions: whole cell reporter gene assay, BHK cells, human GLP-1 receptor; average of at least two replicates; read-out: EC50. As to the method: The purpose of this example is to test the activity, or potency, of the GLP-1 derivatives in vitro. The in vitro potency is the measure of human GLP-1 receptor activation in a whole cell assay.
In vitro potency was determined by measuring the response of the human GLP-1 receptor in a reporter gene assay. The assay was performed in a stably transfected BHK cell line that expresses the human GLP-1 receptor and contains the DNA for the cAMP response element (CRE) coupled to a promoter and the gene for firefly luciferase (CRE luciferase). When the human GLP-1 receptor is activated it results in the production of cAMP, which in turn results in the luciferase protein being expressed. When assay incubation is completed the luciferase substrate (luciferin) is added and the enzyme converts luciferin to oxyluciferin to produce bioluminescence. The luminescence is measured as the readout for the assay.
The cells were cultured at 5% CO2 in cell culture medium. They were aliquoted and stored in liquid nitrogen. Before each assay an aliquot was taken up and washed twice in PBS before being suspended at the desired concentration in the assay specific buffer.
The assay buffer consisted of 2% ovalbumin and 0.2% Pluronic F-68 in assay medium.
1) Cell stocks were thawed in a 37° C. water bath.
2) Cells were washed three times in PBS.
3) Cells were counted and adjusted to 5×10^3 cells/50 μl (1×10^5 cells/ml) in assay medium. A 50 μl aliquot of cells was transferred to each well in the assay plate.
4) Stocks of the test compounds and reference compounds were diluted to a concentration of 0.2 μM in assay buffer. […] 8) A 100 μl aliquot of steadylite plus reagent was added to each well of the assay plate. 9) Each assay plate was covered with aluminum foil to protect it from light and shaken for 30 min at room temperature. 10) Each assay plate was read in a BioTek Synergy 2 Multi-Mode Reader. Calculations and Results
The data from the BioTek Synergy 2 Multi-Mode Reader were transferred to GraphPad Prism software. The software performs a non-linear regression (log(agonist) vs response (three parameters)).
A minimum of two replicates were measured for each sample. The reported EC50 values are averages of all of the measured values for each compound.
Background: In a reporter assay the amount or activity of a reporter protein is the signal.

Setting [3] is: Low HSA IC50, low HSA (max. 0.001% final assay concentration).
Where [4] appears, read: high HSA (2.0% final assay concentration), read-out: High HSA IC50.

The structures appear in SMILES notation. Like-named read-outs stand apart in the source and are kept apart here.

Broadly, the IC50 is the concentration that inhibits the measured activity by half. Usually EC50 stands for the midpoint of the concentration-response curve.

T1 sequence (P43220 24-463): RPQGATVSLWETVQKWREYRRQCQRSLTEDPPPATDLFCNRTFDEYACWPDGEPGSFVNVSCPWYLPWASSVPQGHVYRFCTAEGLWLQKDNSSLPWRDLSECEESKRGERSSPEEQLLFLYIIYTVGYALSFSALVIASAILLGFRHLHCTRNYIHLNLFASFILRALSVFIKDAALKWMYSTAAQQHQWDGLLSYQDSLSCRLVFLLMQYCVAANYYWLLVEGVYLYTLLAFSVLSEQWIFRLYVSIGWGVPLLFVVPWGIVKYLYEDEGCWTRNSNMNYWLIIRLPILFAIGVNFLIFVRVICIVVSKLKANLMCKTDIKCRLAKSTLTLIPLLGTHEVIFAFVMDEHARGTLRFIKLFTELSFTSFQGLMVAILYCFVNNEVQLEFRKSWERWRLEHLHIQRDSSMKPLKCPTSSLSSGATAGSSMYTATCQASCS

In the case of `CC[C@H](C)[C@H](NC(=O)[C@H](Cc1ccccc1)NC(=O)[C@H](CCC(=O)O)NC(=O)[C@H](CCCNC(=N)N)NC(=O)[C@H](C)NC(=O)[C@H](C)NC(=O)[C@H](CCC(N)=O)NC(=O)[C@H](CCC(=O)O)NC(=O)[C@H](CCC(=O)O)NC(=O)[C@H](CC(C)C)NC(=O)[C@H](Cc1ccc(O)cc1)NC(=O)[C@H](CO)NC(=O)[C@H](CO)NC(=O)[C@@H](NC(=O)[C@H](CC(=O)O)NC(=O)[C@H](CO)NC(=O)[C@@H](NC(=O)[C@H](Cc1ccccc1)NC(=O)[C@@H](NC(=O)CNC(=O)[C@H](CCC(=O)O)NC(=O)C(C)(C)NC(=O)[C@@H](N)Cc1c[nH]cn1)[C@@H](C)O)[C@@H](C)O)C(C)C)C(=O)N[C@@H](C)C(=O)N[C@@H](Cc1c[nH]c2ccccc12)C(=O)N[C@@H](CC(C)C)C(=O)N[C@H](C(=O)N[C@@H](CCCNC(=N)N)C(=O)NCC(=O)N[C@@H](CCCNC(=N)N)C(=O)N[C@@H](CCCCNC(=O)COCCOCCNC(=O)COCCOCCNC(=O)COCCOCCNC(=O)COCCOCCNC(=O)COCCOCCNC(=O)COCCOCCNC(=O)CN(CCCNC(=O)[C@H](CO)NC(=O)CC[C@H](NC(=O)[C@H]1CC[C@H](CNC(=O)CCCCCCCCCCCCCCCCCCC(=O)O)CC1)C(=O)O)CCCNC(=O)[C@H](CO)NC(=O)CC[C@H](NC(=O)[C@H]1CC[C@H](CNC(=O)CCCCCCCCCCCCCCCCCCC(=O)O)CC1)C(=O)O)C(=O)O)C(C)C` [Example 25], the results for the IC50 on human GLP-1 receptor [1] (setting [3]) and on human GLP-1 receptor [1] (setting [4]) were 0.91 nM and 41 nM, respectively. In addition, the EC50 at human GLP-1 receptor [2] came out at 0.03 nM.
As to `CC[C@H](C)[C@H](NC(=O)[C@H](Cc1ccccc1)NC(=O)[C@H](CCC(=O)O)NC(=O)[C@H](CCCNC(=N)N)NC(=O)[C@H](C)NC(=O)[C@H](C)NC(=O)[C@H](CCC(N)=O)NC(=O)[C@H](CCC(=O)O)NC(=O)[C@H](CCC(=O)O)NC(=O)[C@H](CC(C)C)NC(=O)[C@H](Cc1ccc(O)cc1)NC(=O)[C@H](CO)NC(=O)[C@H](CO)NC(=O)[C@@H](NC(=O)[C@H](CC(=O)O)NC(=O)[C@H](CO)NC(=O)[C@@H](NC(=O)[C@H](Cc1ccccc1)NC(=O)[C@@H](NC(=O)CNC(=O)[C@H](CCC(=O)O)NC(=O)C(C)(C)NC(=O)[C@@H](N)Cc1c[nH]cn1)[C@@H](C)O)[C@@H](C)O)C(C)C)C(=O)N[C@@H](C)C(=O)N[C@@H](Cc1c[nH]c2ccccc12)C(=O)N[C@@H](CC(C)C)C(=O)N[C@H](C(=O)N[C@@H](CCCNC(=N)N)C(=O)NCC(=O)N[C@@H](CCCNC(=N)N)C(=O)N[C@@H](CCCCNC(=O)CN(CCCNC(=O)COCCOCCNC(=O)COCCOCCNC(=O)COCCOCCNC(=O)COCCOCCNC(=O)CC[C@H](NC(=O)[C@H]1CC[C@H](CNC(=O)CCCNC(=O)CCCCCCCCCCCCCCCS(=O)(=O)O)CC1)C(=O)O)CCCNC(=O)COCCOCCNC(=O)COCCOCCNC(=O)COCCOCCNC(=O)COCCOCCNC(=O)CC[C@H](NC(=O)[C@H]1CC[C@H](CNC(=O)CCCNC(=O)CCCCCCCCCCCCCCCS(=O)(=O)O)CC1)C(=O)O)C(=O)O)C(C)C` [Example 19, N{Epsilon-37}-[2-[bis[3-[[2-[2-[2-[[2-[2-[2-[[2-[2-[2-[[2-[2-[2-[[(4S)-4-carboxy-4-[[4-[[4-(16-sulfohexadecanoylamino)butanoylamino]methyl]cyclohexanecarbonyl]amino]butanoyl]amino]ethoxy]ethoxy]acetyl]amino]ethoxy]ethoxy]acetyl]amino]ethoxy]ethoxy]acetyl]amino]ethoxy]ethoxy]acetyl]amino]propyl]amino]acetyl]-[Aib8,Glu22,Arg26,Arg34,Lys37]-GLP-1-(7-37)-peptide], the IC50 on human GLP-1 receptor [1] (setting [3]) was found to be 0.15 nM; on human GLP-1 receptor [1] (setting [4]), 42 nM. Further, the EC50 on human GLP-1 receptor [2] stood at 0.0014 nM.
For `CC[C@H](C)[C@H](NC(=O)[C@H](Cc1ccccc1)NC(=O)[C@H](CCC(=O)O)NC(=O)[C@H](CCCNC(=N)N)NC(=O)[C@H](C)NC(=O)[C@H](C)NC(=O)[C@H](CCC(N)=O)NC(=O)[C@H](CCC(=O)O)NC(=O)[C@H](CCC(=O)O)NC(=O)[C@H](CC(C)C)NC(=O)[C@H](Cc1ccc(O)cc1)NC(=O)[C@H](CO)NC(=O)[C@H](CO)NC(=O)[C@@H](NC(=O)[C@H](CC(=O)O)NC(=O)[C@H](CO)NC(=O)[C@@H](NC(=O)[C@H](Cc1ccccc1)NC(=O)[C@@H](NC(=O)CNC(=O)[C@H](CCC(=O)O)NC(=O)C(C)(C)NC(=O)[C@@H](N)Cc1c[nH]cn1)[C@@H](C)O)[C@@H](C)O)C(C)C)C(=O)N[C@@H](C)C(=O)N[C@@H](Cc1c[nH]c2ccccc12)C(=O)N[C@@H](CC(C)C)C(=O)N[C@H](C(=O)N[C@@H](CCCNC(=N)N)C(=O)NCC(=O)N[C@@H](CCCNC(=N)N)C(=O)N[C@@H](CCCCNC(=O)CN(CCCNC(=O)COCCOCCNC(=O)COCCOCCNC(=O)COCCOCCNC(=O)COCCOCCNC(=O)COCCOCCNC(=O)CC[C@H](NC(=O)[C@H]1CC[C@H](CNC(=O)CCCNC(=O)CCCCCCCCCCCCCCCS(=O)(=O)O)CC1)C(=O)O)CCCNC(=O)COCCOCCNC(=O)COCCOCCNC(=O)COCCOCCNC(=O)COCCOCCNC(=O)COCCOCCNC(=O)CC[C@H](NC(=O)[C@H]1CC[C@H](CNC(=O)CCCNC(=O)CCCCCCCCCCCCCCCS(=O)(=O)O)CC1)C(=O)O)C(=O)O)C(C)C` [Example 20, N{Epsilon-37}-[2-[bis[3-[[2-[2-[2-[[2-[2-[2-[[2-[2-[2-[[2-[2-[2-[[2-[2-[2-[[(4S)-4-carboxy-4-[[4-[[4-(16-sulfohexadecanoylamino)butanoylamino]methyl]cyclohexanecarbonyl]amino]butanoyl]amino]ethoxy]ethoxy]acetyl]amino]ethoxy]ethoxy]acetyl]amino]ethoxy]ethoxy]acetyl]amino]ethoxy]ethoxy]acetyl]amino]ethoxy]ethoxy]acetyl]amino]propyl]amino]acetyl]-[Aib8,Glu22,Arg26,Arg34,Lys37]-GLP-1-(7-37)-peptide] the same measures were 0.14 nM, 3.7 nM and 0.0016 nM.
